Test results taken from PubChem BioAssay (NCI).
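How tested: cells in 96-well plates exposed to compound for 48 hours at five concentrations. Here, GI50 denotes the concentration required for 50% inhibition of growth. The concentration for full growth arrest is given as TGI.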

Legend:
Assay in all cases: NCI anticancer screen, dose series, 48 h
[1] = tested on: CCRF-CEM leukemia
[2] = tested on: HOP-92 NSCLC
[3] = tested on: A498 renal
[4] = tested on: ACHN renal
[5] = tested on: MALME-3M melanoma
[6] = tested on: HCT-116 colon
[7] = tested on: NCI-H226 lung
[8] = tested on: UO-31 renal
[9] = tested on: KM12 colon
[10] = tested on: HCT-15 colon

Row | Compound | GI50 [1] [µM] | TGI [1] [µM] | GI50 [2] [µM] | TGI [2] [µM] | GI50 [3] [µM] | TGI [3] [µM] | GI50 [4] [µM] | TGI [4] [µM] | GI50 [5] [µM] | TGI [5] [µM] | GI50 [6] [µM] | TGI [6] [µM] | GI50 [7] [µM] | TGI [7] [µM] | GI50 [8] [µM] | TGI [8] [µM] | GI50 [9] [µM] | TGI [9] [µM] | GI50 [10] [µM] | TGI [10] [µM]
1 | c1cc[c]([Sn]([S]c2cccc3cccnc23)([S]c2cccc3cccnc23)[c]2ccccc2)cc1 | 0.0948 | 0.429 | 0.158 | 0.493 | 0.0359 | 0.202 | 0.209 | 0.496 | 0.168 | 0.547 | 0.175 | 0.324 | 0.175 | 1.06 | 0.182 | 0.514 | 0.23 | 0.616 | 0.153 | 0.446
2 | CCOC(=O)N[C@H]1CCc2c(Br)c(OC)c(OC)c(OC)c2-c2ccc(SC)c(=O)cc21 | < 0.01 | > 42 | < 0.0137 | 6.19 | < 0.01 | < 0.0115 | < 0.01 | 15 | < 0.01 | 28.4 | < 0.01 | 11.8 | < 0.0165 | 13.9 | 0.131 | 15.2 | < 0.01 | 3.79 | < 0.01 | 12.2
3 | CC(=O)OC1CCC2(C)C(=CCC3C4CCC5(OC6CC(C)CN(C(C)=O)C6C5C)C(C)=C4C(=O)C32)C1 (stereo not given) |  | > 100 |  | 28.9 |  | 31.2 |  | 67 |  | 29.9 |  | 36.7 |  | 45.8 |  | 81.4 |  | 37.6 |  | 33.6
4 | C(=C\c1nccc2c1[nH]c1ccccc12)/c1ccccc1 | 2.1 | 6.03 | 2.19 | 19.8 | 4.36 | 15.9 | 4.82 | 20.8 | 4.5 | 27.7 | 2.71 | 10.7 | 4.09 | > 100 | 1.58 | 17.4 | 2.15 | 11.3 | 2.43 | 17.5
5 | O=C(O)c1cc(Cc2ccc(O)c(C(=O)O)c2)ccc1O (tested in a mixture with another compound) | 2.25 | > 100 | 1.21 | 6.3 | 5.68 | 21.9 | 11 | 24.8 | 8.55 | 23.9 | 3.67 | 14.2 | 7.29 | 23.3 | 3.99 | 19.9 | 4.39 | 19.1 | 3.35 | 17
6 | O=C(Nc1ccc(Cl)cc1)c1cc(S(=O)(=O)Nc2nnc(-c3ccccc3)c(-c3ccccc3)n2)c(SCc2ccccc2)cc1Cl | 29.7 | 76.8 | 25.3 | 66.8 | 20.4 | 77.9 | 27.7 | > 61.5 | 34.2 | > 100 | 19.8 | 46.5 | 27.7 | > 70.2 | 35.9 | > 100 | 21.9 | > 62 | 32.8 | > 64.2
7 | C1=C(c2ccccc2)C(c2ccc(OCCN3CCCCC3)cc2)Oc2ccccc21 (stereo not given) | 2.46 | 6.46 | 1.56 | 3.25 | 1.67 | 3.17 | 1.66 | 3.15 | 1.73 | 3.48 | 1.7 | 3.07 | 4.08 | 16.7 | 1.41 | 3.16 | 1.74 | 3.29 | 1.5 | 2.99
8 | COC(=O)C1(C2CC/C(C)=C/CC/C(C)=C/CC[C@@]3(C)O[C@@H]3C2)CC1 (stereo not given in full) | 25.7 | 65.3 | 27.3 | > 100 | > 100 | > 100 | > 41.3 | > 62.2 | > 83.8 | > 100 | 33 | > 100 | > 72.2 | > 100 | 26.6 | > 56.3 | 18.9 | 43.5 | > 66.7 | > 100
9 | COc1ccc(-c2nnc(N3CCN(C(=O)CN4CCN(c5ccc(Cl)cc5)CC4)CC3)nc2-c2ccc(OC)cc2)cc1 | 48 | > 100 | 16.2 | 39.1 | 27.7 | 72.2 | 22.9 | > 100 | 21.5 | > 100 | 5.99 | > 100 | 46.8 | > 100 | 6.92 | > 100 | 8.5 | > 100 | 15.8 | > 100
